This is an account of results in patent US7713942B2, “Cage-like microparticle complexes comprising sterols and saponins for delivery of polynucleotides” (Nordic Vaccine Technology A/S, priority 2001, dated 2010).

Where “and” joins values, the source holds several entries; their conditions need not be identical. Identical values can stand only once.

For series [1] the following is noted: dose-dependent, apparently nonspecific; cited from earlier work.
Series [2] can be described thus: Equilibrium-dialysis of ^14C-Mega 10 from ISCOM-matrix. The following applies: water not replaced. The method, then: ISCOMs were prepared by combining Quil A, cholesterol and phophatidylcholine with the component to be inserted (e.g. lipopeptide). ISCOMs were allowed to form for 4 hours with stirring at 35° C. (room temperature for experiments with ^12C/^14C-Mega 10) followed by dialysis against phosphate buffered saline (pH 7.2) in Slide-A-Lyzer® cassettes (Pierce, Rockford, Ill.) or dialysis tubing (Visking, London, UK), MW cut-off 10,000. The concentration in the reaction mixture of Quil A ranged 0.9 mg/ml to 1.3 mg/ml for the different preparations (see Section 3), whereas the concentration of cholesterol and phophatidylcholine was 0.03% w/v in all experiments. The final concentration of Mega 10 was 4% w/v unless otherwise stated.
In the first experiment the kinetics of the Mega 10-dialysis was investigated. ISCOM-matrix was formed in the presence of 7% w/v ^12C/^14C-Mega 10 and Quil A at a concentration of 0.9 mg/ml. From a total volume of 18.3 ml sixteen aliquots of 1 ml were taken and set up for dialysis against water in 8 beakers of 1000 ml (2×1 ml bags per 1000 ml water). Four beakers were placed at room temperature and four at 4° C. with stirring. On each of the following days one beaker from both temperatures were taken and the contents of the individual dialysis bags (2×2 bags) counted after addition of water in order to compensate for differences in volume. Table 1 lists the amount of ^14C-Mega 10 remaining in each bag after dialysis for a certain period of time given as the percentage of cpm (counts per minute) relative to the initial ^14C-contents. […] However, the same end-point concentration of ^14C-Mega 10 was reached within four days (0.4-1%) despite of temperature. Anticipating that Mega 10 diffuses freely across the dialysis membrane one would expect the contents of dialysis bags to represent 0.51% of the total ^14C-Mega 10, as the volume of two bags (from one beaker) at equilibrium was 5.1 ml leaving approx. 995 ml in the beaker (5.1 ml/995 ml*100%=0.51%). And it is concluded that although dialysis at room temperature is faster than dialysis at 4° C. both methods are equally efficient in removing Mega 10 from ISCOM-matrix.

A short description of series [3]: End-point-dialysis of ^14C-Mega 10 from ISCOM-matrix. The following applies: for Amount of detergent remaining in bags: Room temperature, daily replacement of water. Here is the method:
In order to further investigate if Mega 10 could be completely removed from ISCOM-matrix a second experiment was designed. Here, four dialysis bags containing 1 ml of ISCOM-matrix prepared with 3.3% w/v ^12C/^14C-Mega 10 was placed in individual beakers containing 1000 ml of water. Dialysis was performed at room temperature with stirring. Each day one beaker was taken and the contents of the dialysis bag counted after which the dialysis buffer (water) of the remaining beakers was replaced.

As for `CC(=O)O[C@@H]1[C@H](O[C@@H]2O[C@@H](CO)[C@H](O)[C@H]2O)[C@@H](O[C@@H]2O[C@@H](C)[C@H](O[C@@H]3OC[C@@H](O)[C@H](O)[C@H]3O)[C@@H](O)[C@H]2O)[C@H](OC(=O)[C@]23CCC(C)(C)C[C@H]2C2=CC[C@@H]4[C@@]5(C)CC[C@H](O[C@@H]6O[C@H](C(=O)O)[C@@H](O)[C@H](O[C@@H]7OC[C@@H](O)[C@H](O)[C@H]7O)[C@H]6O[C@@H]6O[C@H](CO)[C@H](O)[C@H](O)[C@H]6O)[C@@](C)(C=O)[C@H]5CC[C@@]4(C)[C@]2(C)CC3)O[C@@H]1C` [Squarroside A], the immunomodulating activity result in series [1] is “a suppressive effect at concentrations in the μg range and a stimulant effect in the pg range”.
As for `CCCCCCCCCC(=O)N(C)CC(O)C(O)C(O)C(O)CO` (centres unmarked) [^14C-Mega 10, N-Decanoyl-N-methylglucamide], the “Amount of detergent remaining in dialysis bags” value in series [2] (4° C., 1 day) was 14.5 percentage of initial cpm and 13.5 percentage of initial cpm; in series [2] (4° C., 2 days), 2.2 percentage of initial cpm and 2.3 percentage of initial cpm; in series [2] (4° C., 3 days), 1.0 percentage of initial cpm and 1.3 percentage of initial cpm; in series [2] (4° C., 4 days) it was 0.7 percentage of initial cpm and 1.1 percentage of initial cpm; in series [2] (Room temperature, 1 day), 2.1 percentage of initial cpm; in series [2] (Room temperature, 2 days), 0.9 percentage of initial cpm. Further, the “Amount of detergent remaining in dialysis bags” value is 0.9 percentage of initial cpm in series [2] (Room temperature, 3 days); 0.7 percentage of initial cpm and 0.4 percentage of initial cpm in series [2] (Room temperature, 4 days). Further, the “Amount of detergent remaining in bags” value was found to be 0.23% in series [3] (1 day), 0.07% in series [3] (2 days), 0.06% in series [3] (3 days) and 0.07% in series [3] (4 days). Moreover, the “original amount of detergent remaining within the dialysis bag” value in series [3] (at equilibrium, with replacement of water) was found to be 0.07%.
